Experimental data reported in patent US8288396B2, “Pyrimidopyrimidoindazole derivative” (MSDKK, priority 2009, dated 2012).

Tests used:
Wee1 kinase = target: T1, Wee1 kinase (Homo sapiens, UniProt P30291); assay: Wee1 kinase inhibitory effect (Pharmacological Test 1); assay type: biochemical; conditions: GST-tagged Wee1 kinase, Poly(Lys, Tyr) substrate, 10 μM ATP, 30° C. for 30 minutes
T1 construct: made in house; host or cells: Sf9 insect cells (recombinant baculovirus)
Text: Pharmacological Test 1 (Wee1 Kinase Inhibitory Effect)
(1) Purification of Wee1 Kinase
A cDNA of Wee1 kinase with […] (GST) fused at the amino terminal thereof was inserted into a baculovirus expression vector to construct a recombinant baculovirus, with which cells of an insect cell line Sf9 were infected to overexpress the target protein. The infected cells were collected and lysed, and then the GST-tagged Wee1 kinase protein was adsorbed to a glutathione column and eluted from the column with glutathione, and the active fraction was desalted in a desalting column to give a purified enzyme.
(2) Measurement of Wee1 Kinase Activity
In measurement of the Wee1 kinase activity, a synthetic peptide, Poly(Lys, Tyr) hydrobromide (Lys:Tyr (4:1)) purchased from Sigma was used as the substrate.
The amount of the reaction mixture was 21.1 μL; and the composition of the reaction buffer was 50 mM Tris-HCl buffer (pH 7.4)/10 mM magnesium chloride/1 mM dithiothreitol. The purified Wee1 kinase, 2.5 μg of the substrate peptide, 10 μM of non-labeled adenosine triphosphate (ATP) and 1 μCi of [γ-^33P]-labeled ATP (2500 Ci/mmol or more) were added to the reaction buffer, and the resulting mixture was incubated at 30° C. for 30 minutes. Thereafter, 10 μL of 350 mM phosphate buffer was added to the reaction system to stop the reaction. The substrate peptide was adsorbed on a P81 paper filter 96-well plate and the plate was washed several times with 130 mM phosphate buffer, and the radioactivity thereof was counted using a liquid scintillation counter. The [γ-^33P]-labeled ATP was purchased from Amersham Bioscience, Ltd.
The addition of a test compound to the reaction system was carried out by preparing a series of dilutions of the compound with dimethyl sulfoxide (DMSO) and adding 1.1 μL of each dilution to the reaction system. As a control, 1.1 μL of DMSO was added to the reaction system.

[1] = test system: Cdc2 (Cdk1) tyrosine-15 phosphorylation; assay: Inhibitory effect on Cdc2 (Cdk1) tyrosine-15 phosphorylation in NCI-H1299 cells (Pharmacological Test 2); assay type: cell-based; conditions: Homo sapiens, camptothecin 200 nM 16 hours, then test compound with nocodazole 8 hours, ELISA, read-out: Cdc2-Y15 Phosphorylation-Inhibitory Effect (H1299, +camptothecin) (EC50)
Text: Pharmacological Test 2 (Method for Determining Drug Effect Using Cells (Inhibitory Effect on Cdc2 (Cdk1) Tyrosine-15 Phosphorylation))
Fetal bovine serum (FBS) was purchased from Morgate, Inc.; an RPMI-1640 medium and a DMEM medium were purchased from Invitrogen, Inc.; camptothecin was purchased from Sigma Co.; gemcitabine was purchased from Eli Lilly Japan K.K.; nocodazole and protease inhibitor cocktail were purchased from Sigma Co.; a rabbit anti-Cdc2 antibody and a mouse anti-Cdc2 antibody were purchased from Santa Cruz Biotechnology, Inc.; a rabbit anti-tyrosine-15-phosphorylated Cdc2 antibody and a horseradish peroxidase-labeled anti-mouse IgG antibody were purchased from Cell Signaling Technology, Inc.; and Sure Blue Reserve TMB peroxidase substrate was purchased from Kirkegaard & Perry Laboratories, Inc.
A human non-small cell lung cancer cell line (NCI-H1299) and a human colon cancer cell line (WiDr) can be obtained from American Type Culture Collection (ATCC).
In the method using NCI-H1299 cells, the cells were suspended in an RPMI-1640 medium supplemented with 10% FBS, and 100 μL of the resulting cell suspension was dispensed in a Nunclon Delta treated 96-well plastic plate purchased from Nunc, Inc. at a density of 2000 cells per well, and the plate was incubated overnight at 37° C. under an atmosphere of 5% CO2 and 95% air. Camptothecin was dissolved in dimethyl sulfoxide (DMSO) and further the resulting solution was diluted with an RPMI-1640 medium supplemented with 10% FBS. Then, 50 μL of the diluted solution was added to each well of the plate in which the cells were seeded in advance such that the final concentration of camptothecin was 200 nM, and the plate was incubated at 37° C. under an atmosphere of 5% CO2 and 95% air for 16 hours. A test compound was serially diluted with DMSO, and further diluted with an RPMI-1640 medium supplemented with 10% FBS containing 4000 nM nocodazole. Then, 50 μL of the test compound solution was added to each well of the plate in which the cells treated with camptothecin were seeded, and the plate was incubated at 37° C. under an atmosphere of 5% CO2 and 95% air for 8 hours. Then, the culture medium was removed from each well and 100 μL of a cell lysis buffer was added to each well, and the plate was shaken at 4° C. for 2 hours, and thereafter the liquid in the plate was frozen at −80° C. and then thawed, which was used as a lysed cell solution. Cdc2 and tyrosine-15-phosphorylated Cdc2 in this lysed cell solution were measured by an enzyme-linked immunosorbent assay (ELISA method), and a ratio of tyrosine-15-phosphorylated Cdc2 to Cdc2 was calculated to determine a 50% effective concentration (EC50, nM) of the test compound for inhibition of phosphorylation in cells. The cell lysis buffer as used herein is an aqueous solution containing 20 mM HEPES (pH 7.5), 150 mM sodium chloride, 1 mM disodium ethylenediamine tetraacetate, 0.1% polyoxyethylene (10) octylphenyl ether, 1% protease inhibitor cocktail, 1 mM dithiothreitol, 2 mM sodium orthovanadate, 10 mM sodium fluoride and 10 mM glycerol diphosphate. The measurement of Cdc2 by the ELISA method was carried out as follows. 50 μL of a solution of a rabbit anti-Cdc2 antibody obtained by diluting the antibody to 200 times with 50 mM carbonate-bicarbonate buffer (pH 9.6) was dispensed into each well of a 96-well Maxisorb immunoplate purchased from Nunc, Inc., and the immunoplate was let stand overnight at 4° C. to immobilize the antibody thereto. Subsequently, each well was washed three times with phosphate buffered saline (PBS), and 300 μL of PBS containing 5% bovine serum albumin (5% BSA/PBS) was added to each well, and then, the immunoplate was let stand at room temperature for 2 hours. […]

T1 sequence (P30291 whole entry): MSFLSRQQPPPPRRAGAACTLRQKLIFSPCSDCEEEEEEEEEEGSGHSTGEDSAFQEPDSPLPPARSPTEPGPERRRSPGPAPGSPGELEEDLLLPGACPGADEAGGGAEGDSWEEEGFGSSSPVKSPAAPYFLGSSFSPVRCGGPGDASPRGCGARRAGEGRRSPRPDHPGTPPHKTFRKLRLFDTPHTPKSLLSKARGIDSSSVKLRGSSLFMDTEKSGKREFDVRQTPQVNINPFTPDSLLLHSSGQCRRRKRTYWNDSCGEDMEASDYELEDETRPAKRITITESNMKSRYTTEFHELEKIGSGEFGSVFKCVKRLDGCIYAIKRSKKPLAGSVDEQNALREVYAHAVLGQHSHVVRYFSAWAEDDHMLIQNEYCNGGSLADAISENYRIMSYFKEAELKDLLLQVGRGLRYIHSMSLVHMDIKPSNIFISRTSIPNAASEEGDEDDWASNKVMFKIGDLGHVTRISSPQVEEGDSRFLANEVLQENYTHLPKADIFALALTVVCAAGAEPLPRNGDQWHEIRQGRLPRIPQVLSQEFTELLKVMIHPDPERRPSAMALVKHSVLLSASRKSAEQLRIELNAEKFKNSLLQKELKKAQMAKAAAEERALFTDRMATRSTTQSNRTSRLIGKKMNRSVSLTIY

IC50 (Wee1 kinase) [µM] | EC50 [1] [µM] | Compound
0.0051 | 0.052 | CN1CCc2cc(Nc3ncc4c(=O)n5c(nc4n3)c3ccccc3n5-c3ncccn3)ccc2C1 [Example 100, 2-[(2-methyl-1,2,3,4-tetrahydroisoquinolin-6-yl)amino]-7-(pyrimidin-2-yl)pyrimido[4′,5′:4,5]pyrimido[1,2-b]indazol-5(7H)-one]
0.0061 | 0.017 | CN1CCc2ccc(Nc3ncc4c(=O)n5c(nc4n3)c3ccccc3n5-c3nccs3)cc2C1 [Example 137, 2-[(2-methyl-1,2,3,4-tetrahydroisoquinolin-7-yl)amino]-7-(1,3-thiazol-2-yl)pyrimido[4′,5′:4,5]pyrimido[1,2-b]indazol-5(7H)-one]
0.0039 | 0.038 | CN1CCc2ccc(Nc3ncc4c(=O)n5c(nc4n3)c3ccccc3n5-c3ccccn3)cc2C1 [Example 44, 2-[(2-methyl-1,2,3,4-tetrahydroisoquinolin-7-yl)amino]-7-(pyridin-2-yl)pyrimido[4′,5′:4,5]pyrimido[1,2-b]indazol-5(7H)-one]
0.012 | 0.13 | Cc1cc(Nc2ncc3c(=O)n4c(nc3n2)c2ccccc2n4-c2ncccn2)ccc1N1CCN(C)CC1 [Example 61, 2-{[3-methyl-4-(4-methylpiperazin-1-yl)phenyl]amino}-7-(pyrimidin-2-yl)pyrimido[4′,5′:4,5]pyrimido[1,2-b]indazol-5(7H)-one]
0.0058 | 0.17 | CN1CCN(c2ccc(Nc3ncc4c(=O)n5c(nc4n3)c3ccccc3n5-c3ccoc3)cc2)CC1 [Example 147, 7-(furan-3-yl)-2-{[4-(4-methylpiperazin-1-yl)phenyl]amino}pyrimido[4′,5′:4,5]pyrimido[1,2-b]indazol-5(7H)-one]
0.024 | 0.37 | CN(C)[C@H]1CCN(c2ccc(Nc3ncc4c(=O)n5c(nc4n3)c3ccccc3n5-c3ncccn3)cc2)C1 [Example 79, 2-({4-[(3S)-3-(dimethylamino)pyrolidin-1-yl]phenyl}amino)-7-(pyrimidin-2-yl)pyrimido[4′,5′:4,5]pyrimido[1,2-b]indazol-5(7H)-one]
